Test results: patent publication US5464617A, “β-lactam compounds” (Hoffmann-La Roche Inc., priority 1994, dated 1995)
≈ marks a conversion by molar mass, not a printed value. Where a name gives a salt, the structure may show the parent alone.

Tests used:
[1] = system: Citrobacter freundii 1982; experiment: MIC in vitro of a 1:4 combination of ceftriaxone with a compound of formula I (Test D); type: cell-based; details: 1:4 combination of ceftriaxone with the compound; for MIC C. freundii 1982 (D): Table 4, test D; for MIC C. freundii 1982: Table 2
Description: The minimum inhibitory concentration in vitro ([…]) of a 1:4 combination of ceftriaxone with a compound of formula I against Citrobacter freundii 1982 was measured and compiled in Table 2 hereinafter.

[2] = system: E. coli 1346; experiment: Antibacterial activity of the products per se, serial dilution method in liquid medium (Test E); type: cell-based; details: product per se; for MIC E. coli 1346 (E): Table 4, test E; for MIC E. coli 1346: Table 3, liquid medium
Description: The antibacterial activity of the products per se is illustrated on the basis of Table 3 hereinafter, the minimum inhibitory concentration […] in vitro against E. coli 1346 being determined using the serial dilution method in liquid medium: […]

MIC C. freundii 1982 (D) [1] | MIC E. coli 1346 (E) [2] | MIC C. freundii 1982 [1] | MIC E. coli 1346 [2] | Compound
1 µg/mL | 8 µg/mL | – | – | NC(=O)CN1C[C@H]2CC(COC(N)=O)=C(C(=O)O)N3C(=O)[C@@H]1[C@@H]23 [59(d), (1aS,3aR,6bR)-2-Carbamoylmethyl-5-carbamoyloxymethyl-1-oxo-1a,2,3,3a,4,6b-hexahydro-1H-2,6a-diazacyclobut[cd]indene-6-carboxylic acid sodium salt]
2 µg/mL | 8 µg/mL | – | – | CC(=O)N1C[C@H]2CC(COC(=O)NCC(N)=O)=C(C(=O)O)N3C(=O)[C@@H]1[C@@H]23 [96(a), (1aS,3aR,6bR)-2-Acetyl-5-carbamoylmethylcarbamoyloxymethyl-1-oxo-1a,2,3,3a,4,6b-hexahydro-1H-2,6a-diazacyclobut[cd]indene-6-carboxylic acid sodium salt]
64 µg/mL | > 32 µg/mL | – | – | CC(=O)N1C[C@H]2OC(CSc3nnnn3CC(=O)NOC(c3ccccc3)(c3ccccc3)c3ccccc3)=C(C(=O)O)N3C(=O)[C@@H]1[C@@H]23 [32(h), (1aS,3aR,6bS)-2-Acetyl-1-oxo-5-(1-(trityloxycarbamoylmethyl)-1H-tetrazol-5-ylsulphanylmethyl)-1,1a,2,3,3a,6b-hexahydro-4-oxa-2,6 a-diazacyclobut[cd]indene-6-carboxylic acid sodium salt]
0.5 µg/mL | 1 µg/mL | – | – | Cc1nnc(SCC2=C(C(=O)O)N3C(=O)[C@@H]4[C@H]3[C@H](C2)CN4C=O)s1 [65(e), (1aS,3aR,6bR)-2-Formyl-5-(5-methyl-1,3,4-thiadiazol-2-ylsulphanylmethyl)-1-oxo-1a,2,3,3a,4,6b-hexahydro-1H-2,6a-diazacyclobut[cd]indene-6-carboxylicacid sodium salt]
1 µg/mL | 1 µg/mL | – | – | CC(=O)N1C[C@H]2CC(COC(=O)NCc3ccncc3)=C(C(=O)O)N3C(=O)[C@@H]1[C@@H]23 [100(a), (1aS,3aR,6bR)-2-Acetyl-1-oxo-5-(pyridin-4-ylmethylcarbamoyloxymethyl)-1a,2,3,3a,4,6b-hexahydro-1H-2,6a-diazacyclobut[cd]indene-6-carboxylic acid sodium salt]
32 µg/mL | 32 µg/mL | – | – | O=CN1C[C@H]2OC(CSc3nnnn3CC(=O)NC3CC3)=C(C(=O)O)N3C(=O)[C@@H]1[C@@H]23 [Example 37, (1aS,3aR,6bS)-5-(1-Cyclopropylcarbamoylmethyl-1H-tetrazol-5-ylsulphanylmethyl)-2-formyl-1-oxo-1,1a,2,3,3a,6b-hexahydro-4-oxa-2,6a-diazacyclobut[cd]indene-6-carboxylic acid sodium salt]
4 µg/mL | 16 µg/mL | – | – | CC(=O)N1C[C@H]2CC(CNS(C)(=O)=O)=C(C(=O)O)N3C(=O)[C@@H]1[C@@H]23 [88(a), (1aS,3aR,6bR)-2-Acetyl-5-methylsulphonylaminomethyl-1-oxo-1a,2,3,3a,4,6b-hexahydro-1H-2,6a-diazacyclobut[cd]indene-6-carboxylic acid sodium salt]
– | – | 1 µg/mL | 2 µg/mL | CS(=O)(=O)OC1=C(C(=O)O)N2C(=O)[C@H]3NC[C@@H](C1)[C@H]32 [Example 8, (1aS,3aR,6bR)-5-Methylsulphonyloxy-1-oxo-1a,2,3,3a,4,6b-hexahydro-1H-2,6a-diazacyclobut[cd]indene-6-carboxylic acid trifluoroacetate]
8 µg/mL | 4 µg/mL (≈ 9.58 µM) | – | – | Cc1cc(SCC2=C(C(=O)O)N3C(=O)[C@H]4NC[C@@H](O2)[C@H]43)n2nc(C(N)=O)nc2n1 [Example 29(d), (1aS,3aR,6bS)-5-(2-Carbamoyl-5-methyl[1,2,4]triazolo-[1,5-a]pyrimidin-7-ylsulphanylmethyl)-1-oxo-1,1a,2,3,3a,6b-hexahydro-4-oxa-2,6a-diazacydobut[cd]indene-6-carboxylic acid]
8 µg/mL | 4 µg/mL | – | – | O=C(O)C1=C(CSc2nc(-c3cccnc3)cs2)C[C@@H]2CN[C@@H]3C(=O)N1[C@H]23 [Example 66, (1aS,3aR,6bR)-1-Oxo-5-(4-pyridin-3-yl-thiazol-2-ylsulphanylmethyl)-1a,2,3,3a,4,6b-hexahydro-1H-2,6a-diazacyclobut[cd]indene6-carboxylic acid trifluoroacetate]
2 µg/mL | 4 µg/mL | – | – | O=C(NCC(F)(F)F)OCC1=C(C(=O)O)N2C(=O)[C@H]3NC[C@@H](C1)[C@H]32 [Example 91, (1aS,3aR,6bR)-1-Oxo-5-(2,2,2-trifluoroethylcarbamoyloxymethyl)-1a,2,3,3a,4,6b-hexahydro-1H-2,6a-diazacyclobut[cd]indene-6-carboxylic acid trifluoroacetate]
16 µg/mL | 32 µg/mL | – | – | Cn1nnnc1SC1=C(C(=O)O)N2C(=O)[C@@H]3[C@H]2[C@H](C1)CN3C(=O)C(F)(F)F [Example 3(ab), (1aS,3aR,6bR)-5-(1-Methyl-1H-tetrazol-5-ylsulphanyl)-1-oxo-2-trifluoroacetyl-1a,2,3,3a,4,6b-hexahydro-1H-2,6a-diazacyclobut[cd]indene-6-carboxylic acid sodium salt]
– | – | 0.25 µg/mL | 128 µg/mL | Cn1nnnc1SC1=C(C(=O)O)N2C(=O)[C@@H]3[C@H]2[C@H](C1)CN3C(=O)Nc1ccc(O)cc1 [Example 3(a), (1aS,3aR,6bR)-2-(4-Hydroxy-phenylcarbamoyl)-5-(1-methyl-1H-tetrazol-5-ylsulphanyl)-1-oxo-1a,2,3,3a,4,6b-hexahydro-1H-2,6a-diazacyclobut[cd]indene-6-carboxylic acid sodium salt]
2 µg/mL | 4 µg/mL | – | – | O=C(NCC(F)(F)F)OCC1=C(C(=O)O)N2C(=O)[C@@H]3[C@H]2[C@H](C1)CN3C(=O)C(F)(F)F [92(b), (1aS,3aR,6bR)-1-Oxo-2-trifluoroacetyl-5-(2,2,2-trifluoroethylcarbamoyloxymethy)-1a,2,3,3a,4,6b-hexahydro-1H-2,6a-diazacyclobut[cd]indene-6-carboxylicacid sodium salt]
0.5 µg/mL | > 32 µg/mL | – | – | NC(=O)c1ccc(NC(=O)N2C[C@H]3OC(CSc4ccncc4)=C(C(=O)O)N4C(=O)[C@@H]2[C@@H]34)cc1 [31(e), (1aS,3aR,6bS)-2-(4-Carbamoyl-phenylcarbamoyl)-1-oxo-5-(pyridin-4-ylsulphanylmethyl)-1,1a,2,3,3a,6 b-hexahydro-4-oxa-2,6a-diazacyclobut[cd]indene-6-carboxylic acid sodium salt]
0.5 µg/mL | 2 µg/mL | – | – | COC(=O)CN1C[C@H]2CC(COC(N)=O)=C(C(=O)O)N3C(=O)[C@@H]1[C@@H]23 [59(b), (1aS,3aR,6bR)-5-Carbamoyloxymethyl-2-methoxycarbonylmethyl-1-oxo-1a,2,3,3a,4,6b-hexahydro-1H-2,6a-diazacyclobut[cd]indene-6-carboxylic acid sodium salt]
8 µg/mL | 8 µg/mL (≈ 18.9 µM) | – | – | NC(=O)CNC(=O)Cn1nnnc1SCC1=C(C(=O)O)N2C(=O)[C@H]3NC[C@@H](O1)[C@H]32 [29(i), (1aS,3aR,6bS)-5-(1-(Carbamoylmethyl-carbamoylmethyl)-1H-tetrazol-5-ylsulphanylmethyl)-1-oxo-1,1a,2,3,3a,6b-hexahydro-4-oxa-2,6a-diazacyclobut[cd]indene-6-carboxylic acid]
2 µg/mL | 0.5 µg/mL | – | – | CC(=O)N1C[C@H]2CC(COC(=O)NCc3ccc(O)cc3)=C(C(=O)O)N3C(=O)[C@@H]1[C@@H]23 [102(a), (1aS,3aR,6bR)-2-Acetyl-5-[(4-hydroxy-benzyl)-carbamoyloxymethyl]-1-oxo-1a,2,3,3a,4,6b-hexahydro-1H-2,6a-diazacyclobut[cd]indene-6-carboxylic acid sodium salt]
2 µg/mL | 8 µg/mL | – | – | CCN1C[C@H]2CC(COC(N)=O)=C(C(=O)O)N3C(=O)[C@@H]1[C@@H]23 [59(c), (1aS,3aR,6bR)-5-Carbamoyloxylmethyl-2-ethyl-1-oxo-1a,2,3,3a,4,6b-hexahydro-1H-2,6a-diazacyclobut[cd]indene-6-carboxylic acid sodium salt]
0.5 µg/mL | 2 µg/mL | – | – | Cc1nnc(SCC2=C(C(=O)O)N3C(=O)[C@@H]4[C@H]3[C@H](C2)CN4C(=O)CSc2nnc(N)s2)s1 [65(f), (1aS,3aR,6bR)-2-(2-Amino-1,3,4-thiadiazol-5-ylsulphanylacetyl)-5-(5-methyl-1,3,4-thiadiazol-2-ylsulphanylmethyl)-1-oxo-1a,2,3,3a,4,6b-hexahydro-1H-2,6a-diazacyclobut[cd]indene-6-carboxylic acid sodium salt]

Compound | MIC C. freundii 1982 (D) [1] | MIC E. coli 1346 (E) [2] | MIC C. freundii 1982 [1] | MIC E. coli 1346 [2]
CC(=O)OCC1=C(C(=O)O)N2C(=O)[C@@H]3[C@H]2[C@H](C1)CN3C(=O)NCC(=O)OCc1ccccc1 [25(b), (1aS,3aR,6bR)-5-Acetoxymethyl-2-benzyloxycarbonylmethylcarbamoyl-1-oxo-1a,2,3,3a,4,6b-hexahydro-1H-2,6a-diazacyclobut[cd]indene-6-carboxylic acid sodium salt] | 0.25 µg/mL | 4 µg/mL | – | –
CC(=O)OCC1=C(C(=O)O)N2C(=O)[C@@H]3[C@H]2[C@H](C1)CN3C(=O)C(F)(F)F [25(d), (1aS,3aR,6bR)-5-Acetoxymethyl-2-trifluoroacetyl-1-oxo-1a,2,3,3a,4,6b-hexahydro-1H-2,6a-diazacyclobut[cd]indene-6-carboxylic acid sodium salt] | 0.5 µg/mL | 4 µg/mL | – | –
